Patent publication US20100028485A1, “TALAROMYCES EMERSONII ENZYME SYSTEMS” (priority 2006, published 2010)
Like-named read-outs stand apart in the source and are kept apart here.

Experiments:
Assay type in all cases: biochemical, Talaromyces emersonii
EG V, EG VI and EG VII = assay: Effects of metal ions, reagents, phenolics and glycosides stated for all three enzymes; details: for effect of phenolic substances on enzyme activity: pre-incubation of enzyme with compound in the absence of substrate
Method: (§1) Substrate specificity on various polysaccharides and synthetic glycosides was evaluated by 15 measuring activity against a wide variety of carbohydrates (BBG, lichenan, CMC, other polysaccharides and synthetic glycosides) using the normal β-glucanase assay procedure. • Effects Of Metal Ions, Chemical Modification Reagents And Potential Inhibitors A range of monovalent, divalent and heavy metal ions, at final assay concentrations of 1.0 mM, were investigated for their potential effects on the activities of EG V, EG VI and EG VII, by incubating the enzymes with the chemicals and then conducting the normal enzyme assay. Finally, the inhibitor effects of glycosides, such as disaccharides, lactones and flavanoid glycosides on the purified enzymes were examined. Specified concentrations of each glycoside were included in normal assay cocktails and residual activity determined by comparison with controls (no glycoside present).
(§2) Activity was expressed as a % relative to a control (no metal ion present in incubation mixture). In general, heavy metal ions are thought to inactivate enzymes by forming covalent salts with cysteine, histidine or carboxyl groups. […] A selection of reagents known to modify amino acid R-groups in proteins were tested for their effects on EG V, EG VI and EG VII, both in the absence and presence of substrate (substrate-protective effects could be observed in this manner) (see Table 6).

EG V = assay: Effects of metal ions, chemical modification reagents, detergents and potential inhibitors on EG V; parameters: decrease in activity of EG V by detergent / loss of activity of EG V by detergent: concentration or dose not given beside the values; details: for EG V activity, Enzyme + reagent (control = 100.0): Preincubation of enzyme with reagent for 30 min (50 C) prior to addition of substrate; for EG V activity, Substrate + reagent (control = 100.0): Preincubation of substrate with reagent for 30 min (50 C) prior to addition of enzyme
Method: as §1, §2

EG VI = assay: Effects of metal ions, chemical modification reagents, detergents and potential inhibitors on EG VI; details: for EV VI activity, Enzyme + reagent (control = 100.0): Preincubation of enzyme with reagent for 30 min (50 C) prior to addition of substrate; for EGVI activity, Substrate + reagent (control = 100.0): Preincubation of substrate with reagent for 30 min (50 C) prior to addition of enzyme
Method: as §1, §2

EG VII = assay: Effects of metal ions, chemical modification reagents, detergents and potential inhibitors on EG VII; details: for EG VII activity, Enzyme + reagent (control = 100.0): Preincubation of enzyme with reagent for 30 min (50 C) prior to addition of substrate; for EG VII activity, Substrate + reagent (control = 100.0): Preincubation of substrate with reagent for 30 min (50 C) prior to addition of enzyme
Method: as §1, §2

[1] = pre-incubated with enzyme in advance of the addition of substrate

With `[Zn+2]` [Zn^230] the “effect of metal ion on activity of all three enzymes” value (EG V, EG VI and EG VII; 1 mM metal ion) was “enhanced the activity”.
With `OC[C@H]1O[C@@H](Oc2ccc(O)cc2)[C@H](O)[C@@H](O)[C@@H]1O` [arbutin] the “effect of glycosides/disaccharides on activity of EG V-VII” value (shortened to “effect of glycosides/disaccharides”) (EG V, EG VI and EG VII) was “no apparent effect”.
`O=C(O)/C=C/c1ccc(O)c(O)c1` [caffeic acid] was tested, and the “effect of phenolic substances on enzyme activity” value (“effect of phenolic substances” below) (EG V, EG VI and EG VII) was “did not have a marked inhibitory effect” and the “effect of phenolic substances” value (EG V, EG VI and EG VII; listed as cafeic acid) was “markedly activated”.
In the case of `O=C[C@H](O)[C@@H](O)[C@H](O[C@@H]1O[C@H](CO)[C@@H](O)[C@H](O)[C@H]1O)[C@H](O)CO` [cellobiose], the “concentrations that markedly inhibited all three enzymes” value (EG V, EG VI and EG VII) is reported as 50 to 75 mM.
In the case of `O=c1ccc2cc(O[C@@H]3O[C@H](CO)[C@@H](O)[C@H](O)[C@H]3O)c(O)cc2o1` [esculin], the “effect of glycosides/disaccharides” value (EG V, EG VI and EG VII) is reported as “no apparent effect”.
With `COc1cc(/C=C/C(=O)O)ccc1O` [ferulic acid] the “effect of phenolic substances” value (EG V, EG VI and EG VII) was “did not have a marked inhibitory effect”.
For `OC[C@H]1O[C@@H](O[C@H]2[C@H](O)[C@@H](O)C(O)O[C@@H]2CO)[C@H](O)[C@@H](O)[C@H]1O` (stereo partly drawn) [lactose], the “concentrations inhibiting EG V” value (EG V) was greater than 75 mM.
`Oc1cccc(-c2ccccc2)c1` [m-phenylphenol] was tested, and the “effect of phenolic substances” value (EG V, EG VI and EG VII) was “did not have a marked inhibitory effect”.
In the case of `OC[C@H]1O[C@H](O[C@H]2[C@H](O)[C@@H](O)[C@H](O)O[C@@H]2CO)[C@H](O)[C@@H](O)[C@@H]1O` [maltose], the “effect of glycosides/disaccharides” value (EG V, EG VI and EG VII) is reported as “no apparent effect”.
For `OC[C@H]1O[C@H](OCC2O[C@@H](O)[C@H](O)[C@@H](O)[C@@H]2O)[C@H](O)[C@@H](O)[C@H]1O` (stereo partly drawn) [melibiose], the “effect of glycosides/disaccharides” value (EG V, EG VI and EG VII) was “no apparent effect”.
For `O=Cc1ccccc1C=O` [o-Phthaldialdehyde], the “EV VI activity, Enzyme + reagent (control = 100.0)” value (EG VI) was 100.0, the “EGVI activity, Substrate + reagent (control = 100.0)” value (EG VI) was 139.0 and the “EG V activity, Enzyme + reagent (control = 100.0)” value (EG V) was 106.1. The “EG V activity, Substrate + reagent (control = 100.0)” value (EG V) was 94.6, the “EG VII activity, Enzyme + reagent (control = 100.0)” value (EG VII) was 155.0 and the “EG VII activity, Substrate + reagent (control = 100.0)” value (EG VII) was 98.8.
With `O=C(O)/C=C/c1ccccc1O` [o-coumaric acid] the “effect of phenolic substances” value (EG V, EG VI and EG VII) was “did not have a marked inhibitory effect”.
In the case of `O=C(O)c1cc[c]([Hg][Cl])cc1` [p-Chloromercuribenzoate], the “EV VI activity, Enzyme + reagent (control = 100.0)” value (EG VI) is reported as 115.4, the “EGVI activity, Substrate + reagent (control = 100.0)” value (EG VI) is reported as 107.1 and the “EG V activity, Enzyme + reagent (control = 100.0)” value (EG V) is reported as 125.4. The “EG V activity, Substrate + reagent (control = 100.0)” value (EG V) was 89.7, the “EG VII activity, Enzyme + reagent (control = 100.0)” value (EG VII) was 105.4 and the “EG VII activity, Substrate + reagent (control = 100.0)” value (EG VII) was 91.6.
For `O=C(O)c1ccc(O)c(O)c1` [protocatechuic acid], the “effect of phenolic substances” value (EG V, EG VI and EG VII) was “markedly activated”.
For `OCc1ccccc1O[C@@H]1O[C@H](CO)[C@@H](O)[C@H](O)[C@H]1O` [salicin], the “effect of glycosides/disaccharides” value (EG V, EG VI and EG VII) was “no apparent effect”.
`OC[C@@H](O)[C@@H](O)[C@H](O)[C@@H](O)CO` [sorbitol] was tested, and the “effect of glycosides/disaccharides” value (EG V, EG VI and EG VII) was “no apparent effect”.
With `OC[C@H]1O[C@@](CO)(O[C@H]2O[C@H](CO)[C@@H](O)[C@H](O)[C@H]2O)[C@@H](O)[C@@H]1O` [sucrose] the “effect of glycosides/disaccharides” value (EG V, EG VI and EG VII) was “no apparent effect”.
With `C[C@H](CCC(=O)NCCS(=O)(=O)O)[C@H]1CC[C@H]2[C@@H]3[C@H](O)C[C@@H]4C[C@H](O)CC[C@]4(C)[C@H]3C[C@H](O)[C@]12C` [taurocholic acid] the “decrease in activity of EG V by detergent” value (shortened to “decrease in activity of EG V”) (EG V) was 47.7%.
`C[C@H](CCC(=O)NCCS(=O)(=O)O)[C@H]1CC[C@H]2[C@@H]3CC[C@@H]4C[C@H](O)CC[C@]4(C)[C@H]3C[C@H](O)[C@]12C` [taurodeoxycholic acid] was tested, and the “decrease in activity of EG V” value (EG V; [1]) was 22.7%.
Tween 20 was tested, and the “decrease in activity of EG V” value (EG V; [1]) was 12.7%.
With Tween 80 the “decrease in activity of EG V” value (EG V; [1]) was 30.8% and the “loss of activity of EG V by detergent” value (EG V; simultaneous incubation with substrate) was 34.2%.
